Values joined by “and” are separate entries in the source; they are usually repeats but may differ in a detail not shown here. Identical values can stand only once. A value given as a limit tells only on which side of the number the result lay.

The subject of this test is 653999-131-R-J2-PDC complex spheroids, growth inhibition. The test can be described thus: Anticancer human tumor 653999-131-R-J2-PDC patient-derived lung adenocarcinoma cell line growth inhibition [RAS]. Particulars: for viability, T/C: stronger effect = lower value. From the text:
RAS pathway inhibitors in Combinations in Complex Spheroids
A high-throughput screen of multi-cell type tumor spheroids was designed to identify active combinations of RAS pathway inhibitors and targeted small molecules. Complex spheroids include a stromal component modeled by human endothelial cells (HUVEC) and fibroblasts modeled by human mesenchymal stem cells (MSCs). The concentration ranges selected for each drug and investigational agent were based upon clinically achievable concentrations if the clinical Cmax of the agent was known.
Compounds. The drugs and investigational agents: abemaciclib (NSC768073), cobimetinib (NSC768068), divarasib (GDC6063, NSC841802), docetaxel (NSC628503), GDC-1971 (RLY-1971, NSC841576), gemcitabine (NSC613327), inavolisib (NSC800729), ipatasertib (NSC767898), KB-0742 (NSC834161), MRTX-1133 (NSC836407), osimertinib (NSC779217), RMC-4630 (NSC839698), RMC-6236 (NSC851965), RMC-6291 (NSC852671), Ro-3306 (NSC812927), sapanisertib (NSC764658), SN-38 (NSC673596), staurosporine (NSC755774), SY5609 (NSC837396), and tovorafenib (DAY101, NSC766906), were obtained from the National Cancer Institute (NCI) Developmental Therapeutics Program Chemical Repository. The FDA-approved anticancer drug set is available from the NCI Developmental Therapeutics Program. […] The stock solutions were prepared in dimethyl sulfoxide (DMSO, Sigma-Aldrich, St. Louis, MO, cat. D2650) at 800-fold the tested concentration and stored at -70 degrees C prior to their use. All drugs and investigational agents were tested over a range starting from a high concentration at or near the clinical Cmax and decreasing in half-log increments. If the clinical Cmax for an agent had not been determined, the highest concentration tested was 10 microM.
Cell Culture. All cells were maintained in an incubator at 37 degrees C and 5% CO2 with 95% humidity. The PDC lines were cultured according to standard operating procedures established by the NCI PDMR. All PDCs were thawed and cultured in Matrigel-coated flasks prepared with a working solution of 1X Ham's F-12 nutrient mix, without supplementation (Invitrogen, Waltham, MA, cat. 11765054), 100 U/mL penicillin-streptomycin (Invitrogen, cat. 15140122), and 2.5% Matrigel (Corning Inc., Corning, NY, cat. 354248) for the first three passages. The 362531-283-R-J2-PDC and 782815-120-R-J1-PDC lines were cultured in 6C/Colon 1B media, which includes advanced DMEM/F-12 (Thermo Fisher Scientific, cat. 12634028), 10 mM HEPES (Thermo Fisher Scientific, cat. 15630080), 1X GlutaMAX supplement (Thermo Fisher Scientific, cat. 35050061), 0.1 mg/mL primocin (InvivoGen, San Diego, CA, cat. ant-pm-2), 10% defined fetal bovine serum, heat inactivated (HyClone Laboratories Inc., Logan, UT, cat. SH30070.03HI), 50% L-WRN conditioned media (ATCC, cat. CRL-3276), 1.25 mM N-Acetyl-L-cysteine (Sigma-Aldrich, cat. A9165), 10 mM nicotinamide (Sigma-Aldrich, cat. N0636), 1X B-27 supplement (Thermo Fisher Scientific, cat. 17504044), 1X N-2 supplement (Thermo Fisher Scientific, cat. 17502048), 50 ng/mL human EGF (Thermo Fisher Scientific, cat. PHG0311), and 10 microM Y-27632 dihydrochloride (Tocris Bioscience, cat. 1254). The K12877-001-R-J1-PDC line was cultured in 6I media, which includes all 6C/Colon 1B media plus 10 ng/mL human FGF-10 (PeproTech, cat. 100-26), 1 ng/mL human FGF-2 (PeproTech, cat. 100-18B), 1 µM prostaglandin E2 (Tocris Bioscience, cat. 2296), […] hydrocortisone (Sigma-Aldrich, cat. H4001), and […] bovine insulin (Sigma-Aldrich, cat. I6634). The K86415-001-R-J1-PDC line was cultured in 6D media, which includes all 6C/Colon 1B media components minus the L-WRN conditioned media. The 485176-168-R4-J1-PDC was cultured in PANC media, which includes all 6C/Colon 1B media plus 100 ng/mL human FGF-10 (PeproTech, cat. 100-26), 500 nM SB-431542 (Selleckchem, cat. S1067), and 10 nM gastrin (Tocris Bioscience, cat. 3006). […]

Where [1] appears, read: compound alone, run of 09/09/2024.
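Also: spheroids exposed to the agents for seven days before the readout.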

With `C#Cc1c(F)ccc2cc(O)cc(-c3ncc4c(N5CC6CCC(C5)N6)nc(OCC56CCCN5CC(F)C6)nc4c3F)c12` (stereo not drawn), the viability, T/C (compound 0.0316 µM) was 99% [middle of 8 runs]; the viability, T/C (compound 0.1 µM) was 89.6% [middle of 8 runs]; the viability, T/C (compound 0.316 µM) was 71.2% [middle of 8 runs]; the viability, T/C (compound 1 µM) is 58.1% [middle of 8 runs]; the viability, T/C (compound 3.16 µM) was 43.8% [middle of 8 runs]; the viability, T/C (compound 10 µM) is 31.8% [middle of 8 runs]. Further, the IC50 under setting [1] is 1.88 µM [middle of 8 runs].
On to `C=CC(=O)N1CCN(c2nc(OCC3CCCN3C)nc3c(F)c(-c4nc(N)cc(C)c4C(F)(F)F)c(Cl)cc23)C(C)C1` (stereo not drawn), for which the viability, T/C runs as follows: (compound 0.0316 µM) 107% [middle of 12 runs]; (compound 0.316 µM) 107% [middle of 12 runs]. The IC50 was more than 1000 nM under setting [1] and more than 1000 nM (curve of compound).
On to `C=CC(=O)Nc1cc(Nc2nccc(-c3cn(C)c4ccccc34)n2)c(OC)cc1N(C)CCN(C)C`, for which the viability, T/C reads like this: (compound 0.00316 µM) 98% [middle of 4 runs]; (compound 0.01 µM) 89.8% [middle of 4 runs]; (compound 0.0316 µM) 94.7% [middle of 4 runs]; (compound 1 µM) 62.9% [middle of 4 runs]. Moreover, the IC50 (curve of compound) was > 1000 nM and 291 nM.
On to `CC(C)NCC(C(=O)N1CCN(c2ncnc3c2C(C)CC3O)CC1)c1ccc(Cl)cc1` (stereo not drawn), for which the viability, T/C (compound 0.0316 µM) was 96.7% [middle of 4 runs]; the viability, T/C (compound 0.1 µM) was 96.7% [middle of 4 runs]; the viability, T/C (compound 0.316 µM) is 77.1% [middle of 4 runs]; the viability, T/C (compound 1 µM) is 54.2% [middle of 4 runs]; the viability, T/C (compound 3.16 µM) is 46.6% [middle of 4 runs]; the viability, T/C (compound 10 µM) is 34.9% [middle of 4 runs].
Consider `CC(C)n1nc(-c2ccc3oc(N)nc3c2)c2c(N)ncnc21`, for which the viability, T/C is 87.2% and 81.4% and 79.2% (compound 0.000316 µM); 89.2% and 93.6% and 71.3% (compound 0.001 µM); 87.7% and 76.8% and 77.8% (compound 0.00316 µM); 61.8% and 63.5% and 57.9% (compound 0.01 µM); 43.1% and 40.6% and 35.8% (compound 0.0316 µM); 34.1% and 25.4% and 27.2% (compound 0.1 µM). Further, where the note is “curve of compound”, the IC50 is 19.5 nM and 19.4 nM and 15.4 nM.
Consider `CC(Nc1ccc2c(c1)OCCn1cc(N3C(=O)OCC3C(F)F)nc1-2)C(N)=O` (stereo not drawn), for which the viability, T/C (compound 0.0316 µM) was 79.8% [middle of 4 runs]; the viability, T/C (compound 0.1 µM) is 77.8% [middle of 4 runs]; the viability, T/C (compound 0.316 µM) is 57.4% [middle of 4 runs]; the viability, T/C (compound 1 µM) was 45.6% [middle of 4 runs]; the viability, T/C (compound 3.16 µM) was 36.4% [middle of 4 runs]; the viability, T/C (compound 10 µM) is 25.5% [middle of 4 runs]. In addition, the IC50 (curve of compound) was 727 nM [middle of 4 runs].
`CC1(C)CCC(Nc2ncc(C(F)(F)F)c(-c3c[nH]c4c(P(C)(C)=O)c(C#N)ccc34)n2)CN1` (stereo not drawn): the viability, T/C (compound 0.000949 µM) is 87.8% [middle of 4 runs]; the viability, T/C (compound 0.003 µM) is 75.3% [middle of 4 runs]; the viability, T/C (compound 0.00949 µM) is 72% [middle of 4 runs]; the viability, T/C (compound 0.03 µM) is 71.6% [middle of 4 runs]; the viability, T/C (compound 0.0949 µM) was 71.7% [middle of 4 runs]; the viability, T/C (compound 0.3 µM) was 61.9% [middle of 4 runs]. The IC50 (curve of compound) was more than 300 nM.
In the case of `CCN1CCN(Cc2ccc(Nc3ncc(F)c(-c4cc(F)c5nc(C)n(C(C)C)c5c4)n3)nc2)CC1`, the viability, T/C was 87.8% [middle of 4 runs] (compound 0.00316 µM); 96.6% [middle of 4 runs] (compound 0.01 µM); 73.8% [middle of 4 runs] (compound 0.0316 µM); 80.7% [middle of 4 runs] (compound 0.316 µM); 83.8% [middle of 4 runs] (compound 1 µM). Also, the IC50 (curve of compound) is more than 1000 nM.
`CCc1c2c(nc3ccc(O)cc13)-c1cc3c(c(=O)n1C2)COC(=O)[C@]3(O)CC`: the viability, T/C was 85% [middle of 4 runs] (compound 0.000949 µM); 66.5% [middle of 4 runs] (compound 0.003 µM); 49.5% [middle of 4 runs] (compound 0.00949 µM); 38.3% [middle of 4 runs] (compound 0.03 µM); 26.5% [middle of 4 runs] (compound 0.0949 µM); 13.7% [middle of 4 runs] (compound 0.3 µM). For the same compound, for the setting “curve of compound”, the IC50 was 9.95 nM [middle of 4 runs].
As to `CCn1c(-c2cc(N3CCN(C)CC3)cnc2C(C)OC)c2c3cc(ccc31)-c1csc(n1)CC(NC(=O)C1CC1C)C(=O)N1CCCC(N1)C(=O)OCC(C)(C)C2` (stereo not drawn), the viability, T/C is, setting by setting: (compound 0.000949 µM) 80.7% [middle of 7 runs]; (compound 0.003 µM) 65.2% [middle of 7 runs]; (compound 0.00949 µM) 49.8% [middle of 7 runs]; (compound 0.03 µM) 37.4% [middle of 7 runs]; (compound 0.0949 µM) 29.4% [middle of 7 runs]; (compound 0.3 µM) 28.6% [middle of 7 runs]. The half-inhibitory concentration (IC50) (compound alone, run of 08/26/2024) was 8.13 nM [middle of 7 runs].
Turning to `CCn1c(-c2cccnc2C(C)OC)c2c3cc(ccc31)N1CCOC(CC(NC(=O)C(C(C)C)N(C)C(=O)C3(F)CCN(C(=O)C#CC(C)(C)N(C)C)CC3)C(=O)N3CCCC(N3)C(=O)OCC(C)(C)C2)C1` (stereo not drawn), the viability, T/C is 95.1% [middle of 8 runs] (compound 0.003 µM); 99.5% [middle of 8 runs] (compound 0.00949 µM); 104% [middle of 8 runs] (compound 0.03 µM); 99.9% [middle of 8 runs] (compound 0.0949 µM); 107% [middle of 8 runs] (compound 0.3 µM). In addition, under “compound alone, run of 08/20/2024”, the IC50 was more than 300 nM.
Turning to `C[C@@H](NC(=O)c1ncnc(N)c1Cl)c1ncc(C(=O)Nc2cc(C(F)(F)F)c(Cl)cn2)s1`, the viability, T/C (compound 0.0316 µM) was 110% and 94.1% and 103%; the viability, T/C (compound 0.1 µM) was 99.2% and 120% and 108%; the viability, T/C (compound 0.316 µM) is 93.9% and 101% and 114%; the viability, T/C (compound 1 µM) is 91.1% and 102% and 105%; the viability, T/C (compound 3.16 µM) was 98.3% and 99.8% and 102%; the viability, T/C (compound 10 µM) is 68.6% and 79% and 75.5%. For the setting “curve of compound”, the IC50 was more than 10000 nM.
With `Nc1ccn(C2OC(CO)C(O)C2(F)F)c(=O)n1` (stereo not drawn), the viability, T/C is, setting by setting: (compound 0.00316 µM) 90.2% [middle of 4 runs]; (compound 0.01 µM) 76.4% [middle of 4 runs]; (compound 0.0316 µM) 62.9% [middle of 4 runs]; (compound 0.1 µM) 51.2% [middle of 4 runs]; (compound 0.316 µM) 43.1% [middle of 4 runs]; (compound 1 µM) 34.1% and 30.3% (2×) and 33.9%. Besides, the IC50 (curve of compound) is 99.5 nM [middle of 4 runs].
Consider `O=C(c1ccc(F)c(F)c1Nc1ccc(I)cc1F)N1CC(O)([C@@H]2CCCCN2)C1`, for which the viability, T/C by setting is: (compound 0.01 µM) 77.5% [middle of 4 runs]; (compound 0.1 µM) 51.2% [middle of 4 runs]; (compound 0.316 µM) 28.2% [middle of 4 runs]; (compound 1 µM) 11.1% [middle of 4 runs]. In addition, the IC50 (curve of compound) was 112 nM [middle of 4 runs].

By viability, T/C is commonly meant the result in the treated group divided by that in the control group, in per cent. For orientation: IC50 means the midpoint of a concentration-inhibition curve.

Values taken from PubChem BioAssay AID2060886 (Molecular Pharmacology Branch, DTP, NCI, 2025).
